Measured values from patent US20230011869A1 (Hoffmann-La Roche Inc., priority 2018, published 2023).
Where a name gives a salt, the structure may show the parent alone. Read-outs that look alike come from different tables or passages of the source.

System: Acinetobacter baumannii ATCC17961
Experiment: Antimicrobial susceptibility testing: 90% growth inhibitory concentration (IC90) determination, Iso-Sensitest broth
Format: cell-based
Details: Acinetobacter baumannii, ATCC17961, 16 h, read-out: ATCC17961 IC90
Description: Antimicrobial Susceptibility Testing:
90% Growth Inhibitory Concentration (IC90) Determination
The in vitro antimicrobial activity of the compounds was determined according to the following procedure:
The assay used a 10-points Iso-Sensitest broth medium to measure quantitatively the in vitro activity of the compounds against Acinetobacter baumannii ATCC17978 and Acinetobacter baumannii ATCC17961.
Stock compounds in DMSO were serially twofold diluted (e.g. range from 50 to 0.097 μM final concentration) in 384 wells microtiter plates and inoculated with 49 μl the bacterial suspension in Iso-Sensitest medium to have a final cell concentration of 5×10^(5) CFU/ml in a final volume/well of 50 ul/well. Microtiter plates were incubated at 35±2° C.
Bacterial cell growth was determined with the measurement of optical density at λ=600 nm each 20 minutes over a time course of 16 h. Growth inhibition was calculated during the logarithmic growth of the bacterial cells with determination of the concentration inhibiting 50% (IC50) and 90% (IC90) of the growth.
Table 1 provides the 90% growth inhibitory concentrations (IC90) in micromoles per liter of the compounds of present invention obtained against the strain Acinetobacter baumannii ATCC17978 and Acinetobacter baumannii ATCC17961.

[1] = 90% growth inhibitory concentration, Acinetobacter baumannii ATCC17961, Iso-Sensitest broth, OD 600 nm over 16 h

| Compound | IC90 [1] [µM] | IC90 [µM] |
| --- | --- | --- |
| COc1ccc(-c2cnc3c(Nc4ccc(C(=O)N5CCN(C(=O)[C@]6(O)C[C@@H](O)[C@@H](O)[C@H](O)C6)CC5)c(C)c4)nccn23)c(F)c1F [Example 295, [4-[[3-(2,3-difluoro-4-methoxyphenyl)imidazo[1,2-a]pyrazin-8-yl]amino]-2-methylphenyl]-[4-[(3R,5R)-1,3,4,5-tetrahydroxycyclohexanecar-bonyl]piperazin-1-yl]methanone] | 0.171 |  |
| COc1ccc(-c2cnc3c(Nc4cc(C)c(C(=O)N5CCN(C(=O)[C@@H]6C[C@@H](O)CN6)CC5)c(F)c4)nccn23)c(F)c1F [Example 243, (4-(4-((3-(2,3-difluoro-4-methoxyphenyl)imidazo[1,2-a]pyrazin-8-yl)amino)-2-fluoro-6-methylbenzoyl)piperazin-1-yl)((2S,4R)-4-hydroxypyrrolidin-2-yl)methanone dihydrochloride] | 0.113 |  |
| COc1ccc(-c2cnc3c(Nc4ccc(C(=O)N5CCN(C(=O)[C@H]6C[C@H](O)CN6)CC5)c(C)c4)nccn23)c(F)c1F (racemic) [Example 228, [4-[[3-(2,3-difluoro-4-methoxy-phenyl)imidazo[1,2-a]pyrazin-8-yl]amino]-2-methyl-phenyl]-[4-[rac-(2R,4S)-4-hydroxy-pyrrolidine-2-carbonyl]piperazin-1-yl]methanone] | 0.104 |  |
| COc1ccc(-c2cnc3c(Nc4ccc(C(=O)N5CCN(C(=O)[C@H]6NC[C@H](O)[C@@H]6O)CC5)c(C)c4)nccn23)cc1F [Example 233, ((2S,3R,4S)-3,4-dihydroxypyrrolidin-2-yl)(4-(4-((3-(3-fluoro-4-methoxyphenyl)imidazo[1,2-a]pyrazin-8-yl)amino)-2-methylbenzoyl)piperazin-1-yl)methanone hydrochloride] | 0.19 |  |
| COc1ccc(-c2cnc3c(Nc4ccc(C(=O)N5CCN(C(=O)NCCN)CC5)c(C)c4)nccn23)c(Cl)c1F [Example 153, N-(2-aminoethyl)-4-[4-[[3-(2-chloro-3-fluoro-4-methoxy-phenyl)imidazo[1,2-a]pyrazin-8-yl]amino]-2-methyl-benzoyl]piperazine-1-carboxamide formate] | 0.05 |  |
| COc1ccc(-c2cnc3c(Nc4ccc(C(=O)N5CCN(C(=O)[C@@H]6C[C@](C)(O)CN6)CC5)c(C)c4)nccn23)c(F)c1F [Example 455, [4-[[3-(2,3-difluoro-4-methoxyphenyl)imidazo[1,2-a]pyrazin-8-yl]amino]-2-methylphenyl]-[4-[(2S,4S)-4-hydroxy-4-methylpyrrolidine-2-carbonyl]piperazin-1-yl]methanone; formic acid] |  | 0.066 |
| COc1ccc(-c2cnc3c(Nc4ccc(C(=O)N5CCN(C(=O)[C@@H]6C[C@@](OC)(C(F)(F)F)CN6)CC5)c(C)c4)nccn23)c(F)c1F [Example 583, (4-(4-((3-(2,3-difluoro-4-methoxyphenyl)imidazo[1,2-a]pyrazin-8-yl)amino)-2-methylbenzoyl)piperazin-1-yl)((2S,4S)-4-methoxy-4-(trifluoromethyl)pyrrolidin-2-yl)methanone hydrochloride] | 0.46 |  |
| COc1ccc(-c2cnc3c(Nc4ccc(C(=O)N5CCN(C(=O)[C@@H]6C[C@@H](C#N)CN6)CC5)c(C)c4)nccn23)c(F)c1F [Example 574, (3R,5S)-5-[4-[4-[[3-(2,3-difluoro-4-methoxyphenyl)imidazo[1,2-a]pyrazin-8-yl]amino]-2-methylbenzoyl]piperazine-1-carbonyl]pyrrolidine-3-carbonitrile;hydrochloride] | 0.265 |  |
| COc1ccc(-c2cnc3c(Nc4ccc(C(=O)N5CCN(C(=O)C6(C)CCCN6)CC5)c(C)c4)nccn23)c(F)c1F (stereo not drawn) [Example 80, (4-(4-((3-(2,3-difluoro-4-methoxyphenyl)imidazo[1,2-a]pyrazin-8-yl)amino)-2-methylbenzoyl)piperazin-1-yl)(2-methylpyrrolidin-2-yl)methanone hydrochloride] | 0.081 |  |
| COc1ccc(-c2cnc3c(Nc4ccc(C(=O)N5CCN(C(=O)[C@@H]6CCC(C)(C)N6)CC5)c(C)c4)nccn23)c(F)c1F [Example 77, (S)-(4-(4-((3-(2,3-difluoro-4-methoxyphenyl)imidazol[1,2-a]pyrazin-8-yl)amino)-2-methylbenzoyl)piperazin-1-yl)(5,5-dimethylpyrrolidin-2-yl)methanone hydrochloride] | 0.083 |  |
| COc1ccc(-c2cnc3c(Nc4ccc(C(=O)N5CCN(C(=O)[C@]6(O)CNCC[C@H]6O)CC5)c(C)c4)nccn23)c(F)c1F (relative stereo) [Example 236, rel-(4-(4-((3-(2,3-difluoro-4-methoxyphenyl)imidazo[1,2-a]pyrazin-8-yl)amino)-2-methylbenzoyl)piperazin-1-yl)((3R,4S)-3,4-dihydroxypiperidin-3-yl)methanone] | 0.082 |  |
| COc1ccc(-c2cnc3c(Nc4ccc(C(=O)N5CCC(C(=O)N6C[C@@H](O)[C@@H](O)[C@@H](O)C6)CC5)c(C)c4)nccn23)c(F)c1F [Example 569, (1-(4-((3-(2,3-difluoro-4-methoxyphenyl)imidazo[1,2-a]pyrazin-8-yl)amino)-2-methylbenzoyl)piperidin-4-yl)((3R,4s,5S)-3,4,5-trihydroxypiperidin-1-yl)methanone] | 0.205 |  |
| COc1ccc(-c2cnc3c(Nc4ccc(C(=O)N5CCN(C(=O)[C@@H]6C[C@@H](CO)CN6)CC5)c(C)c4)nccn23)c(F)c1F [Example 284, [4-[[3-(2,3-difluoro-4-methoxyphenyl)imidazo[1,2-a]pyrazin-8-yl]amino]-2-methylphenyl]-[4-[(2S,4R)-4-(hydroxymethyl)pyrrolidine-2-carbonyl]piperazin-1-yl]methanone; hydrochloride] |  | 0.049 |

Further lines, with some results ahead:

| IC90 [1] [µM] | Compound | IC90 [µM] |
| --- | --- | --- |
| 0.064 | Cc1cc(Nc2nccn3c(-c4ccc(OCC#N)c(F)c4Cl)cnc23)ccc1C(=O)N1CCN(C(=O)[C@H]2CCNC[C@@H]2O)CC1 [Example 220, 2-[3-chloro-2-fluoro-4-[8-[4-[4-[(3R,4S)-3-hydroxypiperidine-4-carbonyl]piperazine-1-carbonyl]-3-methyl-anilino]imidazo[1,2-a]pyrazin-3-yl]phenoxy] acetonitrile formate] |  |
| 0.059 | Cc1cc(Nc2nccn3c(-c4ccc(OCC#N)c(F)c4Cl)cnc23)ccc1C(=O)N1CCN(C(=O)[C@@H]2CCNC[C@H]2O)CC1 [Example 221, 2-[3-chloro-2-fluoro-4-[8-[4-[4-[(3S,4R)-3-hydroxypiperidine-4-carbonyl]piperazine-1-carbonyl]-3-methyl-anilino]imidazo[1,2-a]pyrazin-3-yl]phenoxy] acetonitrile formate] |  |
| 0.053 | Cc1cc(Nc2nccn3c(-c4ccc(OCC#N)c(F)c4F)cnc23)ccc1C(=O)N1CCN(C(=O)[C@@H]2C[C@@](C)(O)CN2)CC1 [Example 231, 2-[2,3-difluoro-4-[8-[4-[4-[(2S,4R)-4-hydroxy-4-methyl-pyrrolidine-2-carbonyl]piperazine-1-carbonyl]-3-methyl-anilino]imidazo[1,2-a]pyrazin-3-yl]phenoxy] acetonitrile formate] |  |
| 0.042 | Cc1cc(Nc2nccn3c(-c4ccc(OCC#N)c(F)c4Cl)cnc23)ccc1C(=O)N1CCN(C(=O)[C@@H]2C[C@@H](O)CN2)CC1 [Example 211, 2-[3-chloro-2-fluoro-4-[8-[4-[4-[(2S,4R)-4-hydroxypyrrolidine-2-carbonyl]piperazine-1-carbonyl]-3-methyl-anilino]imidazo[1,2-a]pyrazin-3-yl]phenoxy] acetonitrile formate] |  |
| 0.038 | Cc1cc(Nc2nccn3c(-c4ccc(OCC#N)c(F)c4Cl)cnc23)ccc1C(=O)N1CCN(C(=O)[C@H]2CCNC[C@H]2O)CC1 [Example 222, 2-[3-chloro-2-fluoro-4-[8-[4-[4-[(3S,4S)-3-hydroxypiperidine-4-carbonyl]piperazine-1-carbonyl]-3-methyl-anilino]imidazo[1,2-a]pyrazin-3-yl]phenoxy] acetonitrile formate] |  |
| 0.068 | Cc1cc(Nc2nccn3c(-c4ccc(OCC#N)c(F)c4Cl)cnc23)ccc1C(=O)N1CCN(C(=O)C2CCNCC2)CC1 [Example 209, 2-[3-chloro-2-fluoro-4-[8-[3-methyl-4-[4-(piperidine-4-carbonyl)piperazine-1-carbonyl]anilino]imidazo[1,2-a]pyrazin-3-yl]phenoxy] acetonitrile formate] |  |
| 0.073 | Cc1cc(Nc2nccn3c(-c4ccc(OCC#N)c(F)c4F)cnc23)ccc1C(=O)N1CCN(C(=O)[C@H]2CCNC[C@@H]2O)CC1 [Example 191, 2-[2,3-difluoro-4-[8-[4-[4-[(3R,4S)-3-hydroxypiperidine-4-carbonyl]piperazine-1-carbonyl]-3-methyl-anilino]imidazo[1,2-a]pyrazin-3-yl]phenoxy] acetonitrile formate] |  |
| 0.033 | Cc1cc(Nc2nccn3c(-c4ccc(OCC#N)c(F)c4Cl)cnc23)ccc1C(=O)N1CCN(C(=O)[C@H]2CCNC2)CC1 [Example 213, 2-[3-chloro-2-fluoro-4-[8-[3-methyl-4-[4-[(3S)-pyrrolidine-3-carbonyl]piperazine-1-carbonyl]anilino]imidazo[1,2-a]pyrazin-3-yl]phenoxy] acetonitrile formate] |  |
